Measurements taken from the CheMixHub ionic liquid set.

Assay: xn = mol fraction of the nth substance listed

C=C[n+]1ccn(CCCC)c1.NCCCC[C@H](N)C(=O)[O-] + O
101.3 kPa
Conditions | electrical conductivity [S/m] | viscosity [mPa·s]
293.15 K, x1 = 0.3 | – | 8.51
293.15 K, x1 = 0.5 | – | 90.4
293.15 K, x1 = 0.9 | – | 1909
293.15 K, x1 = 1 | – | 10700
303.15 K, x1 = 0.5 | 2.81 | 69.3
303.15 K, x1 = 0.9 | 1.13 | 1664
303.15 K, x1 = 1 | 0.133 | 6900
308.15 K, x1 = 0.1 | 2.16 | –
313.15 K, x1 = 0.3 | 2.99 | 4.43
313.15 K, x1 = 0.5 | 3.31 | 51.34
323.15 K, x1 = 0.5 | 3.88 | 40.64
333.15 K, x1 = 0.9 | – | 750
343.15 K, x1 = 0.5 | – | 36.74
343.15 K, x1 = 0.9 | – | 223
353.15 K, x1 = 0.1 | – | 1.39
353.15 K, x1 = 0.3 | – | 2.03

CC(=O)[O-].CCC[NH3+] + O
298.15 K, 101 kPa
Conditions | electrical conductivity [S/m]
x1 = 0.0032 | 0.713
x1 = 0.005 | 0.905
x1 = 0.0101 | 1.43
x1 = 0.0169 | 1.47
x2 = 0 | 0.043
x2 = 0.1576 | 0.082
x2 = 0.3525 | 0.165
x2 = 0.5506 | 0.401
x2 = 0.6999 | 0.685
x2 = 0.7885 | 0.937
x2 = 0.8198 | 1.06
x2 = 0.8501 | 1.18
x2 = 0.8849 | 1.34
x2 = 0.9041 | 1.44
x2 = 0.9082 | 1.47
x2 = 0.9305 | 1.59
x2 = 0.9455 | 1.65
x2 = 0.965 | 1.65
x2 = 0.9742 | 1.61

CC(=O)[O-].CC[NH+](CC)CC + O
298.15 K, 101 kPa
Conditions | viscosity [mPa·s]
x1 = 0.0288 | 6.32
x1 = 0.042 | 8.12
x1 = 0.0638 | 10.7
x1 = 0.0847 | 13.35
x1 = 0.1016 | 14.91
x1 = 0.1457 | 18.6
x1 = 0.2125 | 23.4
x1 = 0.2349 | 24.4
x1 = 0.2904 | 26.5
x1 = 0.3254 | 27.4
x1 = 0.367 | 27.8
x1 = 0.4174 | 28.2
x1 = 0.5162 | 27.6
x1 = 0.5579 | 26.8
x1 = 0.6055 | 26.1
x1 = 0.6604 | 25.3
x1 = 0.7243 | 24.2
x1 = 0.7996 | 22.9
x1 = 0.8899 | 22.7
x1 = 1 | 24.1

CCCCCCCCCCCC[n+]1ccn(C)c1.[Cl-] + O
298.15 K, 100 kPa, frequency 0.001 MHz
Conditions | electrical conductivity [S/m]
x1 = 7.207e-05 | 0.035
x1 = 9.009e-05 | 0.043
x1 = 0.0001261 | 0.059
x1 = 0.0001802 | 0.085
x1 = 0.0002162 | 0.102
x1 = 0.0002882 | 0.129
x1 = 0.0003242 | 0.137
x1 = 0.0004143 | 0.155
x1 = 0.0004503 | 0.163
x1 = 0.0004863 | 0.17
x1 = 0.0005223 | 0.177

CCCCCCCCCC[N+](C)(C)C.[Br-] + O
298.15 K, 101 kPa
Conditions | viscosity [mPa·s]
x1 = 9.063e-05 | 0.9026
x1 = 0.0001809 | 0.9052
x1 = 0.0002674 | 0.9071
x1 = 0.0003644 | 0.9089
x1 = 0.0004939 | 0.9162
x1 = 0.000699 | 0.9255
x1 = 0.0009049 | 0.9331
x1 = 0.00108 | 0.939
x1 = 0.001236 | 0.9459
x1 = 0.001415 | 0.9542
x1 = 0.001504 | 0.9589
x1 = 0.001656 | 0.9675
x1 = 0.001835 | 0.9775

CCCCCCCCCC[n+]1ccn(C)c1.O=S(=O)([N-]S(=O)(=O)C(F)(F)C(F)(F)F)C(F)(F)C(F)(F)F + O
Conditions | electrical conductivity [S/m]
295.15 K, 101 kPa, x2 = 0.14 | 0.11

CCCCCCCCCC[n+]1ccn(C)c1.[Cl-] + O
298.15 K, frequency 5e-05 MHz
Conditions | electrical conductivity [S/m]
100 kPa, x1 = 0.0002846 | 0.126
100 kPa, x1 = 0.0003693 | 0.163
100 kPa, x1 = 0.0004125 | 0.177
100 kPa, x1 = 0.0004683 | 0.205
100 kPa, x1 = 0.0005331 | 0.235
100 kPa, x1 = 0.0005997 | 0.262
100 kPa, x1 = 0.0006609 | 0.294
100 kPa, x1 = 0.0007347 | 0.32
100 kPa, x1 = 0.0007922 | 0.347
100 kPa, x1 = 0.0008678 | 0.375
100 kPa, x1 = 0.000929 | 0.4
100 kPa, x1 = 0.0009883 | 0.424
100 kPa, x1 = 0.001073 | 0.44
100 kPa, x1 = 0.001143 | 0.446
100 kPa, x1 = 0.001186 | 0.45
100 kPa, x1 = 0.001274 | 0.458
100 kPa, x1 = 0.001346 | 0.467
100 kPa, x1 = 0.001387 | 0.471
100 kPa, x1 = 0.001452 | 0.479
100 kPa, x1 = 0.001524 | 0.489
100 kPa, x1 = 0.001603 | 0.493
100 kPa, x1 = 0.001637 | 0.497
101.3 kPa, x1 = 0.04436 | 4.7

298.15 K, 101.3 kPa
Conditions | electrical conductivity [S/m]
x1 = 6.46e-06 | 0.00385
x1 = 9.55e-06 | 0.00548
x1 = 1.262e-05 | 0.00708
x1 = 1.582e-05 | 0.00872
x1 = 1.894e-05 | 0.0103
x1 = 2.2e-05 | 0.0118
x1 = 2.507e-05 | 0.01334
x1 = 2.8e-05 | 0.0148
x1 = 3.092e-05 | 0.0162
x1 = 3.384e-05 | 0.0176

CCCCCCCCn1cc[n+](C)c1.N[C@@H](CCC(=O)O)C(=O)[O-] + O
298.15 K, 100 kPa
Conditions | electrical conductivity [S/m]
x1 = 0.001637 | 0.28
x1 = 0.002301 | 0.358
x1 = 0.002857 | 0.426
x1 = 0.003573 | 0.518
x1 = 0.004181 | 0.593
x1 = 0.004913 | 0.651
x1 = 0.005822 | 0.708
x1 = 0.006748 | 0.759
x1 = 0.008079 | 0.835
x1 = 0.008965 | 0.89
x1 = 0.01029 | 0.928
x1 = 0.01145 | 0.926

CCCCCC[N+](C)(C)C.[Br-] + O
298.15 K, 101 kPa
Conditions | electrical conductivity [S/m] | viscosity [mPa·s]
x1 = 0.000888 | – | 0.9148
x1 = 0.001394 | – | 0.9261
x1 = 0.002133 | – | 0.9439
x1 = 0.003331 | – | 0.9727
x1 = 0.004173 | – | 0.9962
x1 = 0.004485 | 1.84 | –
x1 = 0.005042 | – | 1.019
x1 = 0.005996 | – | 1.043
x1 = 0.006874 | – | 1.066
x1 = 0.007743 | – | 1.088
x1 = 0.008657 | – | 1.113
x1 = 0.0096 | – | 1.138
x1 = 0.01046 | – | 1.162
x1 = 0.01139 | – | 1.189
x1 = 0.01245 | – | 1.222
